In data set [1] the test system is Staphylococcus aureus (ATCC 25923). In words: MIC assay in liquid medium (twofold dilutions) against S. aureus. The format is cell-based. The settings on record: lowest concentration in twofold dilutions with no growth; 5×10^5 CFU/ml, Müller-Hinton broth, 37°C, 18 hours, read by eye; duplicate or triplicate, min–max if variable. As for the experimental part: (§1) Seventeen predicted and recovered peptides were de novo synthesized using solid-phase technology by CASLO Laboratory ApS (Lyngby, Denmark) and delivered as HPLC-purified (>95%) trifluoracetate (TFA) salts. The peptide salts were stored as 5.12 mM stock solutions in 0.01% (V/V) acetic acid/0.2% (m/V) BSA. Peptides were tested against Escherichia coli (ATCC 25922) and Pseudomonas aeruginosa (ATCC 15692), Staphylococcus aureus (ATCC 25923), Micrococcus luteus, Saccharomyces cerevisiae, a protozoan parasite (Trypanosoma brucei brucei), mouse (Mus musculus) red blood cells and mouse spleen tissue cultures (containing 50–60% B-cells, ∼25–30% T-cells, and 5% myeloid cells). All assays were performed in duplicate or triplicate.
(§2) Activity against the bacteria and fungus was measured by assessing the lowest peptide concentration in a series of twofold dilutions at which no growth was detected (known as the minimum inhibitory concentration, MIC). Bacterial and yeast cultures (5×10^5 colony forming units/ml) were prepared in Müller-Hinton (MH) broth and Luria-Bertani (LB) broth respectively and transferred to serial dilutions of peptides ranging from 512 or 256 µM down to 1 or 0.5 µM in 96-well polypropylene plates. After incubation at 37°C (bacteria) or 30°C (S. cerevisiae) for 18 hours, growth of the cultures was checked by eye. In addition to MIC, we determined minimum microbicidal concentrations (MMC) by inoculating samples of the MIC assays on agar plates lacking peptides and checking for overnight growth. In all cases, MIC and MMC were identical.

In data set [2] the test system is T-lymphocytes (naive C57Black/6 splenocytes). The data set can be described thus: Inhibition of Concanavalin A-induced T-cell proliferation in spleen cell cultures. The format is cell-based, Mus musculus. The settings on record: lowest concentration causing at least 50% inhibition of Concanavalin A-induced T-cell proliferation; 2×10^5 splenocytes, 24 h + 18 h [3H]thymidine, 37°C; min–max if variable. As for the experimental part:
as §1
Activity against T-lymphocytes was assessed as the lowest peptide concentration in a series of twofold dilutions causing at least 50% inhibition of Concanavalin A-induced T-cell proliferation (IC50). Solutions containin 2×10^5 naive C57Black/6 splenocytes in the presence of 2.5 µg Concanavalin A were added to polypropylene 96-well plates containing the serial peptide dilutions to obtain total volumes of 100 µl. After incubation for 24 hours at 37°C in a humidified atmosphere, the cells were pulsed with [^3H]thymidine and incubated for an additional 18 hours. The amount of [^3H]thymidine incorporation was assessed by a β-counter as a measure of cell proliferation and the percentage of proliferation inhibition for each peptide concentration was calculated as 100×(1−(Tobs/T100%)), where Tobs is the [^3H]thymidine level measured for the peptide concentration, and T100% is the [^3H]thymidine level measured for Concanavalin-A-induced cell proliferation in the absence of peptide (representing 100% proliferation).

The next data set deals with mouse red blood cells. In words: Hemolysis of mouse red blood cells (HC50). It counts as cell-based. The settings on record: lowest concentration causing at least 50% hemolysis; mouse blood diluted 1/100 in RPMI, 37°C, 30 minutes, OD 550 nm; 100% = 1% Tween-20. As to the method: as §1
Activity against mouse red blood cells was examined by assessing the lowest peptide concentration in a series of twofold dilutions causing at least 50% hemolysis (HC50). Briefly, heparinized blood was obtained by cardiac puncture of mice euthanized via CO2. The blood was diluted 1/100 in RPMI and added to polypropylene 96-well plates containing the serial peptide dilutions to obtain total volumes of 100 µl. The plates were incubated at 37°C in a humidified atmosphere for 30 minutes and centrifuged at 1400 rpm for 2 minutes to pellet intact red blood cells allowing visual observation of hemolysis. Supernatants were subsequently transferred to 96-well flat-bottom plates to allow spectrophotometry using an ELISA reader (OD measured at 550 nm). The percentage of hemolyis for each peptide concentration was calculated as 100×(ODobs−OD0%)/(OD100%−OD0%), where ODobs is the OD measured for the peptide concentration, OD0% is the average OD in the absence of peptides (0% hemolysis), and OD100% is the average OD in the presence of 1% Tween-20 (100% hemolysis).

For the next data set, the system named is Saccharomyces cerevisiae. The data set can be described thus: MIC assay in liquid medium (twofold dilutions) against S. cerevisiae. Conditions: lowest concentration in twofold dilutions with no growth; 5×10^5 CFU/ml, Luria-Bertani broth, 30°C, 18 hours, read by eye; duplicate or triplicate, min–max if variable. The format is cell-based. As for the experimental part: as §1, §2

A further data set has as its system Micrococcus luteus. In words: MIC assay in liquid medium (twofold dilutions) against M. luteus. Conditions: lowest concentration in twofold dilutions with no growth; 5×10^5 CFU/ml, Müller-Hinton broth, 37°C, 18 hours, read by eye; duplicate or triplicate, min–max if variable. The format is cell-based. As to the method:
as §1, §2

The subject of data set [3] is Pseudomonas aeruginosa (ATCC 15692). The data set can be described thus: MIC assay in liquid medium (twofold dilutions) against P. aeruginosa. The format is cell-based. The settings on record: lowest concentration in twofold dilutions with no growth; 5×10^5 CFU/ml, Müller-Hinton broth, 37°C, 18 hours, read by eye; duplicate or triplicate, min–max if variable. As for the experimental part:
as §1, §2

A short description of data set [4]: Hydrophobicity as % TFA/AcN solvent at HPLC elution time. The format is physicochemical. The settings on record: chromatographic; expressed as % TFA/AcN solvent at HPLC elution time.
In data set [5] the test system is Trypanosoma brucei brucei AnTat1.1 bloodstream parasites. The data set can be described thus: Trypanolytic activity (LC95, 30 minutes). The format is cell-based. The settings on record: lowest concentration killing at least 95% of parasites after 30 minutes; PSG buffer with 5% FCS, light microscope count; min–max of repeated tests. As for the experimental part:
as §1
Activity against T. brucei parasites was assessed as the minimum concentration in a series of twofold dilutions required to kill 95% of parasites in 30 minutes (LC95). Frozen stabilates of Trypanosoma brucei brucei AnTat1.1 bloodstream parasites were expanded by infection of C57Black/6 mice (Janvier). Mice with systemic parasitaemia (typically 4–5 days post infection) were exsanguinated and parasites were purified from heparinized blood by DEAE-cellulose (DE52, Whatman) chromatography. Collected parasites were washed twice with Phosphate-Saline-Glucose buffer (PSG-buffer) and enumerated microscopically using a Bürker hematocytometer. The DEAE52-purified parasites (stock: 10^6 parasites/ml PSG buffer containing 5% FCS) were added to polypropylene 96-well plates containing the serial peptide dilutions to obtain total volumes of 200 µl. After incubation for 30 minutes, trypanolytic activity was assessed using a light microscope by calculating the percentage of dead parasites in a minimum of 200 counted cells.

For data set [6], the system named is Escherichia coli (ATCC 25922). In words: MIC assay in liquid medium (twofold dilutions) against E. coli. The format is cell-based. Conditions: lowest concentration in twofold dilutions with no growth; 5×10^5 CFU/ml, Müller-Hinton broth, 37°C, 18 hours, read by eye; duplicate or triplicate, min–max if variable. As to the method: as §1, §2

Converted amounts (≈) assume the structure as drawn. Where a SMILES comes first, the peptide text is derived from it. A value given as a limit tells only on which side of the number the result lay.

The record followed here is publication PMC3731216, “Origin and Functional Diversification of an Amphibian Defense Peptide Arsenal” (PLoS Genetics, 2013).

Take `CC[C@H](C)[C@H](NC(=O)[C@H](C)NC(=O)[C@H](CCCCN)NC(=O)[C@H](C)NC(=O)[C@H](C)NC(=O)[C@H](CCCCN)NC(=O)CNC(=O)[C@H](Cc1ccccc1)NC(=O)[C@H](C)NC(=O)[C@@H](NC(=O)CNC(=O)[C@H](C)NC(=O)[C@H](CCCCN)NC(=O)[C@@H](NC(=O)[C@H](C)NC(=O)[C@H](CCSC)NC(=O)CN)[C@@H](C)O)[C@@H](C)O)C(=O)N[C@H](C(=O)NCC(=O)N[C@@H](C)C(=O)N[C@@H](C)C(=O)N[C@@H](CC(C)C)C(N)=O)[C@@H](C)CC` [PGLa-St2] (H-GMATKAGTAFGKAAKAIIGAAL-NH2; N-terminus assumed): in data set [1], the “MIC S. aureus” value was over 256 µM. For the same compound, in data set [2], the IC50 was 64 µM. The “HC50 Erythrocytes” value in the data set on mouse red blood cells is over 256 µM. In addition, in the data set with Saccharomyces cerevisiae, the “MIC S. cerevisiae” value was found to be 64 µM (≈ 129 µg/mL). In the data set on Micrococcus luteus, the “MIC M. luteus” value turned out to be 2 µM (≈ 4.04 µg/mL). Also, the “MIC P. aeruginosa” value in data set [3] worked out at 128 µM (≈ 258 µg/mL). Further, the Hydrophobicity in [4] is 42,6 % TFA/AcN solvent. In addition, the “LC95 T. brucei” value in data set [5] lay in the range of 16 to 32 µM. Also, the “MIC E. coli” value in data set [6] stood at 16 µM (≈ 32.3 µg/mL).
Take “KLGFENFLVKALKTVMHVPTSPLLa [CPF-St6, predicted S. tropicalis skin peptide encoded by cpf-St6]”: the “MIC S. aureus” value in data set [1] is over 256 µM. Besides, the IC50 in data set [2] was 32 to 64 µM. For the same compound, in the data set on mouse red blood cells, the “HC50 Erythrocytes” value turned out to be 256 µM. Moreover, the “MIC S. cerevisiae” value in the data set on Saccharomyces cerevisiae is 64 µM. The “MIC M. luteus” value against Micrococcus luteus is given as 4 µM. Further, in [3], the “MIC P. aeruginosa” value is reported as over 256 µM. Besides, the Hydrophobicity in data set [4] is listed as 35,5 % TFA/AcN solvent. The “LC95 T. brucei” value in data set [5] fell in the range of 16 to 256 µM. Also, the “MIC E. coli” value in data set [6] came out at 16 µM.

For orientation: IC50 means the midpoint of a concentration-inhibition curve.
